Read-outs that look alike come from different tables or passages of the source.
Assays:
[1] = cited from earlier work
[2] = system: systemic arterial pressure; assay: Systemic arterial pressure; type: in vivo, CIA mice; settings: single IV injection, regardless of dose
[3] = system: collagen induced arthritis (CIA); type: in vivo, DBA/1J mice; settings: single IV dose on day 22, observed to day 58, 6 mice/group
[4] = system: collagen induced arthritis (CIA); assay: Efficacy against collagen induced arthritis, subcutaneous treatment; type: in vivo, DBA/1J mice; settings: 5.0 nmol/animal SC on day 22 and 34; between days 34 and 40

Vasoactive intestinal peptide [free VIP]
in vivo half-life [1]: few minutes | time to full recovery of SAP to the norm [2]: approximately one hour | paw thickness and clinical arthritis score ([3]; 0.5 nmol/animal): did not show any therapeutic efficacy | paw thickness and clinical arthritis score ([3]; 1.0 nmol/animal): did not show any therapeutic efficacy | duration of disease suppression after cessation of treatment [4]: about a week

From paper PMC3563715 (Molecular pharmaceutics, 2013)
